IC50 data for 13 compounds are collected here from patent US12351581B2, “Compounds for FGFR inhibition” (Cogent Biosciences, Inc., priority 2023, dated 2025).

Molecules are shown by their SMILES. Where two headings read alike, the source gives them in different places.

One test has as its target T1, FGFR2 N549H (Homo sapiens, UniProt P21802, N549H).
T1 construct: biochemical assays using purified intracellular domains of the respective isoforms; purchased Carna Bioscience 08-532
The experiment in a line: FGFR mutant enzyme assay (HTRF KinEASE-TK). In kind it is biochemical. The settings on record: ATP 0.9 uM. The method, then:
(§1) Activity against FGFR wild type and mutant enzymes were determined in biochemical assays using purified intracellular domains of the respective isoforms using HTRF KinEASE-TK assay technology from CisBio, now PerkinElmer. (Catalogue number 62TK0PEC). Briefly test compounds were tested in 11 point 1:3 serial dilutions, typical final concentration range from 10,000 nM to 0.17 nM. Test compounds were dissolved in DMSO and added to assay plates using acoustic transfer. Enzyme was pre-incubated with test compound for 30 minutes and the assay was initiated by addition of ATP and TK-peptide substrate. After 60 minutes at room temperature the reaction was quenched with detection reagent and incubated for an additional 60 minutes at room temperature. The plates were read using a multimode reader and the emission ratio of 665 nm to 615 nm was determined. This ratio was converted to percent of control (POC). [1-(high control-sample signal)/(high control-low control)]*100. Wells without compound were used to determine high control values and wells without enzyme were used to determine low control values. The POC values were fit using a four-parameter logistic model and the value where the fit curve was equal to 50 POC was reported as the IC50 using the Signals Vitro Vivo software package (PerkinElmer). Final assay conditions were: 50 mM HEPES pH7.5, 10 mM MgCl2, 1 mM EDTA, 0.01% Brij-35, 2 mM MnCl2, 1 mM DTT, and 0.5 uM TK-peptide. The enzyme source, catalogue number, final enzyme concentration, and final ATP concentration can be found in the tables 1-2 below.
For orientation: TR-FRET usually uses a lanthanide donor and a delayed reading to cut background.

The next test addresses T2, FGFR2 V564I (Homo sapiens, UniProt P21802, V564I).
T2 construct: biochemical assays using purified intracellular domains of the respective isoforms; purchased Carna Bioscience 08-546
The experiment in a line: FGFR mutant enzyme assay (HTRF KinEASE-TK). It is filed as biochemical. The settings on record: ATP 0.4 uM. The method, then:
as §1

The next test deals with T3, FGFR2 V564F (Homo sapiens, UniProt P21802, V564F).
T3 construct: biochemical assays using purified intracellular domains of the respective isoforms; purchased SignalChem Biotech F05-12FG
The experiment in a line: FGFR mutant enzyme assay (HTRF KinEASE-TK). In kind it is biochemical. The conditions noted are these: ATP 1.5 uM. On the procedure:
as §1

In a further test the target is T4, FGFR2 (Homo sapiens, UniProt P21802).
T4 construct: biochemical assays using purified intracellular domains of the respective isoforms; purchased Carna Bioscience 08-134
The experiment in a line: FGFR wild type enzyme assay (HTRF KinEASE-TK). The conditions noted are these: ATP 2 uM. It is filed as biochemical. On the procedure:
as §1

The target in another test is FGFR2-WT (Homo sapiens, UniProt P21802). Briefly: Phosphorylated FGFR2-WT (pFGFR2-WT) cell assay, KATOIII cells. The settings on record: 1 hour incubation, phospho FGFR2 HTRF. In kind it is cell-based. On the procedure: KATOIII cells were grown in the appropriate growth medium, IMDM supplemented with 20% fetal bovine serum. Cells were seeded into a 384-well at 1×10^5 cells/25 μL/well. Cells were treated with compound using three-fold serial dilutions at final concentrations ranging from 10 μM to 0.5 nM. Compound was incubated on cells for 1 hour at 37° C., 5% CO2.
Following the 1-hour incubation with compounds, cell lysates were prepared and phospho FGFR2 was measured using the HTRF Phospho-FGFR2 (TYR653/654) Detection Kits (CisBio, cat #64FGFR2Y6PEG). 8 μL of cell lysis buffer (4×) supplied with 1× Phospho and Total protein blocking reagent (CisBio, cat #64FGFR2Y6PEG, CisBio, cat #64KB1AAC) was then added to the wells. Cells were incubated with lysis buffer for 40 minutes at 4° C. under shaking conditions. Plates were centrifuged at 1500 rpm for 3 min and then 16 μL of cell lysate was transferred from the cell-culture plate to a small volume detection plate with the added premixed antibody solutions (4 μL) (CisBio, cat #64FGFR2Y6PEG). Plates were centrifuged at 1000 rpm for 1 min then incubated at 25° C. for 120 min, then overnight at 4° C. Plates were read on the En Vision multimode plate reader via HTRF dual wavelength detection. One hundred percent of control (POC) was determined using DMSO treated samples, and 0 POC was determined using the top concentration of a control compound. A 4-parameter logistic curve was fit to the POC values as a function of compound concentration to determine the IC50 value.

Where [1] appears, read: compound table after the examples, read-out: Enz FGFR2.

FGFR2-WT, sequence (P21802 430-767 limits assumed): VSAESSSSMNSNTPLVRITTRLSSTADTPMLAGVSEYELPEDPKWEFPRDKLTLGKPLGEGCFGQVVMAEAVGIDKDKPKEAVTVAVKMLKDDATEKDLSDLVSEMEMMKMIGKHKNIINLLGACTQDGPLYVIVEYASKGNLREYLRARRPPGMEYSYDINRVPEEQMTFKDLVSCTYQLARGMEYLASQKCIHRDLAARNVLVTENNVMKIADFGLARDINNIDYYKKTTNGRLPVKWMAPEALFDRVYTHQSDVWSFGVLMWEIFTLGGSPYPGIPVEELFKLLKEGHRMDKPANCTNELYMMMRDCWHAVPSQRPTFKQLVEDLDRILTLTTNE
T3 sequence (P21802 399-821 V564F limits assumed): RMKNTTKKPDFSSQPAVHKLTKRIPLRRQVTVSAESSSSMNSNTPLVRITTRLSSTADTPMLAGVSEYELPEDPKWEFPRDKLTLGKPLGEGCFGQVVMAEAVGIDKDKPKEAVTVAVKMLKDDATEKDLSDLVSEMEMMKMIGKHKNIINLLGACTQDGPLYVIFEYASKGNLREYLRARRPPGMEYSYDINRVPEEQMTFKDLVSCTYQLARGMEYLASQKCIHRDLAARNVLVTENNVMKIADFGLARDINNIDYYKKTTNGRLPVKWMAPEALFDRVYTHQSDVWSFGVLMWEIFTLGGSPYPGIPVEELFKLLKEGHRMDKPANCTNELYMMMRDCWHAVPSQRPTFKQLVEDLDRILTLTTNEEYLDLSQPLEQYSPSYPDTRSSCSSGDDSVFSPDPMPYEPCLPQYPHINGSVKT
T2 sequence (P21802 399-821 V564I limits assumed): as the sequence (P21802 399-821 V564F limits assumed) above, with F166I counted along it
T1 sequence (P21802 399-821 N549H limits assumed): as the sequence (P21802 399-821 V564F limits assumed) above, with N151H, F166V counted along it
T4 sequence (P21802 399-821 limits assumed): as the sequence (P21802 399-821 V564F limits assumed) above, with F166V counted along it

Take `C[C@@H]1CN(c2ccc(-c3cc(O[C@H](C)c4ccc(F)cn4)c4c(C#N)cnn4c3)cn2)C[C@H](C)O1` [Compound 16, 6-(6-((2S,6R)-2,6-dimethylmorpholino)pyridin-3-yl)-4-((R)-1-(5-fluoropyridin-2-yl)ethoxy)pyrazolo[1,5-a]pyridine-3-carbonitrile]: the IC50 on FGFR2 N549H was 0.3 nM; at FGFR2 V564I it was 1 nM; against FGFR2 V564F, 0.8 nM; on FGFR2 (Table 3, read-out: FGFR2 Enz), 0.5 nM; on FGFR2 (setting [1]), 0.5 nM; on FGFR2-WT, 8 nM.
As to `Cc1c(-c2cc(O[C@H](C)c3ccc(F)cn3)c3c(C#N)cnn3c2)cnn1[C@H]1CCCN(C(=O)C(C)(C)O)C1` [Compound 17, 4-((R)-1-(5-fluoropyridin-2-yl)ethoxy)-6-(1-((S)-1-(2-hydroxy-2-methylpropanoyl)piperidin-3-yl)-5-methyl-1H-pyrazol-4-yl)pyrazolo[1,5-a]pyridine-3-carbonitrile], the IC50 against FGFR2 N549H was 0.5 nM; against FGFR2 V564I it was 1.7 nM; at FGFR2 V564F, 1 nM; on FGFR2 (Table 3, read-out: FGFR2 Enz), 0.6 nM; on FGFR2 (setting [1]), 0.6 nM; on FGFR2-WT it was 3.4 nM.
As for `Cc1c(-c2cc(O[C@H](C)c3ccc(F)cn3)c3c(C#N)cnn3c2)cnn1[C@H]1CCCN(C(=O)[C@H](C)O)C1` [Compound 18, 4-((R)-1-(5-fluoropyridin-2-yl)ethoxy)-6-(1-((S)-1-((S)-2-hydroxypropanoyl)piperidin-3-yl)-5-methyl-1H-pyrazol-4-yl)pyrazolo[1,5-a]pyridine-3-carbonitrile], the IC50 on FGFR2 N549H came to 0.5 nM; against FGFR2 V564I, 2 nM; on FGFR2 V564F it was 1 nM; at FGFR2 (Table 3, read-out: FGFR2 Enz), 0.5 nM; at FGFR2 (setting [1]), 0.6 nM; against FGFR2-WT it was 4 nM.
In the case of `C[C@H](O)C(=O)N1CCC(n2cc(-c3cc(O[C@H](C)c4ccc(F)cn4)c4c(C#N)cnn4c3)cn2)CC1` [Compound 19, 4-((R)-1-(5-fluoropyridin-2-yl)ethoxy)-6-(1-(1-((S)-2-hydroxypropanoyl)piperidin-4-yl)-1H-pyrazol-4-yl)pyrazolo[1,5-a]pyridine-3-carbonitrile], the IC50 stood at 0.1 nM against FGFR2 N549H; 0.4 nM on FGFR2 V564I; 0.3 nM on FGFR2 V564F; 0.15 nM at FGFR2 (Table 3, read-out: FGFR2 Enz); 0.15 nM on FGFR2 (setting [1]); 1.25 nM against FGFR2-WT.
Consider `Cc1c(-c2cc(O[C@H](C)c3ccc(F)cn3)c3c(C#N)cnn3c2)cnn1C` [Compound 21, 6(R)-6-(1,5-dimethyl-1H-pyrazol-4-yl)-4-(1-(5-fluoropyridin-2-yl)ethoxy)pyrazolo[1,5-a]pyridine-3-carbonitrile], for which the IC50 at FGFR2 N549H stood at 3 nM; at FGFR2 V564I, 11 nM; against FGFR2 V564F, 6 nM; on FGFR2 (Table 3, read-out: FGFR2 Enz), 1.7 nM; on FGFR2 (setting [1]), 1.7 nM; against FGFR2-WT, 24 nM.
As for `Cc1c(-c2cc(O[C@H](C)c3ccc(F)cn3)c3c(C#N)cnn3c2)cnn1[C@H]1CC[C@](C)(O)CC1` [Compound 22, 4-((R)-1-(5-fluoropyridin-2-yl)ethoxy)-6-(1-((1r,4R)-4-hydroxy-4-methylcyclohexyl)-5-methyl-1H-pyrazol-4-yl)pyrazolo[1,5-a]pyridine-3-carbonitrile], the IC50 on FGFR2 N549H is 0.4 nM; on FGFR2 V564I, 1.4 nM; at FGFR2 V564F, 1 nM; on FGFR2 (Table 3, read-out: FGFR2 Enz), 0.3 nM; on FGFR2 (setting [1]), 0.3 nM; at FGFR2-WT, 2.7 nM.
With `Cc1c(-c2cc(O[C@H](C)c3ccc(F)cn3)c3c(C#N)cnn3c2)cnn1[C@H]1CC[C@@](C)(O)CC1` [Compound 23, 4-((R)-1-(5-fluoropyridin-2-yl)ethoxy)-6-(1-((1s,4S)-4-hydroxy-4-methylcyclohexyl)-5-methyl-1H-pyrazol-4-yl)pyrazolo[1,5-a]pyridine-3-carbonitrile], the IC50 at FGFR2 N549H amounted to 0.6 nM; at FGFR2 V564I, 2 nM; at FGFR2 V564F, 1 nM; on FGFR2 (Table 3, read-out: FGFR2 Enz), 0.4 nM; on FGFR2 (setting [1]) it was 0.4 nM; at FGFR2-WT, 4 nM.
In the case of `C[C@@H](Oc1cc(-c2ccc(N3CCN(C)[C@@H](CO)C3)nc2)cn2ncc(C#N)c12)c1ccc(F)cn1` [Compound 24, 4-((R)-1-(5-fluoropyridin-2-yl)ethoxy)-6-(6-((R)-3-(hydroxymethyl)-4-methylpiperazin-1-yl)pyridin-3-yl)pyrazolo[1,5-a]pyridine-3-carbonitrile], the IC50 is 0.3 nM at FGFR2 N549H; 1 nM against FGFR2 V564I; 1 nM at FGFR2 V564F; 0.3 nM on FGFR2 (Table 3, read-out: FGFR2 Enz); 0.3 nM at FGFR2 (setting [1]); 3 nM at FGFR2-WT.
On to `C[C@@H](Oc1cc(-c2ccc(N3CC[C@@H](O)[C@@H](O)C3)nc2)cn2ncc(C#N)c12)c1ccc(F)cn1` [Compound 25, 6-(6-((3S,4R)-3,4-dihydroxypiperidin-1-yl)pyridin-3-yl)-4-((R)-1-(5-fluoropyridin-2-yl)ethoxy)pyrazolo[1,5-a]pyridine-3-carbonitrile], for which the IC50 against FGFR2 N549H is 0.25 nM; on FGFR2 V564I it was 1 nM; against FGFR2 V564F, 0.7 nM; on FGFR2 (Table 3, read-out: FGFR2 Enz) it was 0.3 nM; on FGFR2 (setting [1]), 0.3 nM; on FGFR2-WT, 3 nM.
Take `C[C@@H](Oc1cc(-c2ccc(N3CC[C@H](O)[C@H](O)C3)nc2)cn2ncc(C#N)c12)c1ccc(F)cn1` [Compound 26, 6-(6-((3R,4S)-3,4-dihydroxypiperidin-1-yl)pyridin-3-yl)-4-((R)-1-(5-fluoropyridin-2-yl)ethoxy)pyrazolo[1,5-a]pyridine-3-carbonitrile]: the IC50 against FGFR2 N549H was 0.3 nM; on FGFR2 V564I, 1 nM; on FGFR2 V564F it was 1 nM; at FGFR2 (Table 3, read-out: FGFR2 Enz) it was 0.5 nM; at FGFR2 (setting [1]) it was 0.5 nM; against FGFR2-WT it was 4 nM.
As for `Cc1c(-c2cc(O[C@H](C)c3ccc(F)cn3)c3c(C#N)cnn3c2)cnn1C[C@H](O)CO` [Compound 27, 6-(1-((S)-2,3-dihydroxypropyl)-5-methyl-1H-pyrazol-4-yl)-4-((R)-1-(5-fluoropyridin-2-yl)ethoxy)pyrazolo[1,5-a]pyridine-3-carbonitrile], the IC50 at FGFR2 N549H is 5 nM; on FGFR2 V564I, 17 nM; on FGFR2 V564F it was 11 nM; on FGFR2 (Table 3, read-out: FGFR2 Enz) it was 3 nM; at FGFR2 (setting [1]), 3 nM; at FGFR2-WT, 23 nM.
On to `Cc1nn(C[C@H](O)CO)cc1-c1cc(O[C@H](C)c2ccc(F)cn2)c2c(C#N)cnn2c1` [Compound 28, 6-(1-((S)-2,3-dihydroxypropyl)-3-methyl-1H-pyrazol-4-yl)-4-((R)-1-(5-fluoropyridin-2-yl)ethoxy)pyrazolo[1,5-a]pyridine-3-carbonitrile], for which the IC50 worked out at 5 nM at FGFR2 N549H; 12 nM against FGFR2 V564I; 10 nM at FGFR2 V564F; 3 nM at FGFR2 (Table 3, read-out: FGFR2 Enz); 3 nM at FGFR2 (setting [1]); 17 nM against FGFR2-WT.
Turning to `C[C@@H](Oc1cc(-c2cnn([C@H]3CCCNC3)c2N)cn2ncc(C#N)c12)c1ccc(F)cn1` [Compound 29, 6-(5-amino-1-((S)-piperidin-3-yl)-1H-pyrazol-4-yl)-4-((R)-1-(5-fluoropyridin-2-yl)ethoxy)pyrazolo[1,5-a]pyridine-3-carbonitrile], the IC50 against FGFR2 N549H was determined as 0.6 nM; against FGFR2 V564I, 1.5 nM; against FGFR2 V564F it was 1.4 nM; on FGFR2 (Table 3, read-out: FGFR2 Enz) it was 0.3 nM; at FGFR2 (setting [1]), 0.3 nM; at FGFR2-WT, 4 nM.
